Key:
Hepatotoxicity [1] = test system: Hepatotoxicity;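 as to HepSE cholecystitis: Cholecystitis-related hepatic side effect score drawn from the DILIps (drug-induced liver injury prediction) training data set; call rule not given here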;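 as to HepSE cholelithiasis: hepatic side effect score for cholelithiasis, drawn from the DILIps training data for predicting drug-induced liver injury; call rule not given here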;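 as to HepSE cirrhosis: cirrhosis hepatic side effect score taken from the DILIps (drug-induced liver injury prediction) training set; call rule not given here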;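 as to HepSE elevated liver function tests: hepatic side effect score for raised liver function tests, as recorded in the DILIps training set used for predicting drug-induced liver injury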; as to HepSE hepatic failure: call rule not given here;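 as to HepSE jaundice: Jaundice-related hepatic side-effect score drawn from the training data of the DILIps (drug-induced liver injury prediction system); call rule not given here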; as to HepSE liver disease: call rule not given here
Hepatotoxicity [2] = test system: Hepatotoxicity; remark: listed apart in the source;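 as to HepSE cholecystitis: Cholecystitis-related hepatic side effect score drawn from the DILIps (drug-induced liver injury prediction) training data set; call rule not given here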;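 as to HepSE cholelithiasis: hepatic side effect score for cholelithiasis, drawn from the DILIps training data for predicting drug-induced liver injury; call rule not given here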;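 as to HepSE cirrhosis: cirrhosis hepatic side effect score taken from the DILIps (drug-induced liver injury prediction) training set; call rule not given here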;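 as to HepSE elevated liver function tests: hepatic side effect score for raised liver function tests, as recorded in the DILIps training set used for predicting drug-induced liver injury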; as to HepSE hepatic failure: call rule not given here;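 as to HepSE jaundice: Jaundice-related hepatic side-effect score drawn from the training data of the DILIps (drug-induced liver injury prediction system); call rule not given here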; as to HepSE liver disease: call rule not given here
Hepatotoxicity [3] = test system: Hepatotoxicity; remark: listed apart in the source;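 as to HepSE cholecystitis: Cholecystitis-related hepatic side effect score drawn from the DILIps (drug-induced liver injury prediction) training data set; call rule not given here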;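 as to HepSE cholelithiasis: hepatic side effect score for cholelithiasis, drawn from the DILIps training data for predicting drug-induced liver injury; call rule not given here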;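 as to HepSE cirrhosis: cirrhosis hepatic side effect score taken from the DILIps (drug-induced liver injury prediction) training set; call rule not given here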;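 as to HepSE elevated liver function tests: hepatic side effect score for raised liver function tests, as recorded in the DILIps training set used for predicting drug-induced liver injury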; as to HepSE hepatic failure: call rule not given here;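 as to HepSE jaundice: Jaundice-related hepatic side-effect score drawn from the training data of the DILIps (drug-induced liver injury prediction system); call rule not given here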; as to HepSE liver disease: call rule not given here
Hepatotoxicity [4] = test system: Hepatotoxicity; remark: listed apart in the source;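 as to HepSE cholecystitis: Cholecystitis-related hepatic side effect score drawn from the DILIps (drug-induced liver injury prediction) training data set; call rule not given here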;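 as to HepSE cholelithiasis: hepatic side effect score for cholelithiasis, drawn from the DILIps training data for predicting drug-induced liver injury; call rule not given here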;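 as to HepSE cirrhosis: cirrhosis hepatic side effect score taken from the DILIps (drug-induced liver injury prediction) training set; call rule not given here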;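 as to HepSE elevated liver function tests: hepatic side effect score for raised liver function tests, as recorded in the DILIps training set used for predicting drug-induced liver injury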; as to HepSE hepatic failure: call rule not given here; as to HepSE liver disease: call rule not given here
Hepatotoxicity [5] = test system: Hepatotoxicity; remark: listed apart in the source; as to HepSE hepatic failure: call rule not given here; as to HepSE liver disease: call rule not given here
Hepatotoxicity [6] = test system: Hepatotoxicity; remark: listed apart in the source; as to HepSE hepatic failure: call rule not given here; as to HepSE liver disease: call rule not given here
Hepatotoxicity [7] = test system: Hepatotoxicity; remark: listed apart in the source
Hepatotoxicity [8] = test system: Hepatotoxicity; remark: listed apart in the source
Hepatotoxicity [9] = test system: Hepatotoxicity; remark: listed apart in the source
Hepatotoxicity [10] = test system: Hepatotoxicity; remark: listed apart in the source
Hepatotoxicity [11] = test system: Hepatotoxicity; remark: listed apart in the source
Hepatotoxicity [12] = test system: Hepatotoxicity; remark: listed apart in the source
Hepatotoxicity [13] = test system: Hepatotoxicity; remark: listed apart in the source
Hepatotoxicity [14] = test system: Hepatotoxicity; remark: listed apart in the source

SMILES	HepSE_liver disease (Hepatotoxicity [1])	HepSE_cholelithiasis (Hepatotoxicity [2])	HepSE_cirrhosis (Hepatotoxicity [4])	HepSE_hepatic failure (Hepatotoxicity [5])	HepSE_cholecystitis (Hepatotoxicity [6])	HepSE_jaundice (Hepatotoxicity [7])	HepSE_hepatomegaly (Hepatotoxicity [8])	HepSE_hepatic necrosis (Hepatotoxicity [9])	HepSE_liver fatty (Hepatotoxicity [11])	HepSE_bilirubinemia (Hepatotoxicity [13])	HepSE_Combined Scores (Hepatotoxicity [14])	HepSE_liver disease (Hepatotoxicity [1]; Liver)	HepSE_cholelithiasis (Hepatotoxicity [2]; Liver)	HepSE_cirrhosis (Hepatotoxicity [4]; Liver)	HepSE_hepatic failure (Hepatotoxicity [5]; Liver)	HepSE_cholecystitis (Hepatotoxicity [6]; Liver)	HepSE_jaundice (Hepatotoxicity [7]; Liver)	HepSE_hepatomegaly (Hepatotoxicity [8]; Liver)	HepSE_hepatic necrosis (Hepatotoxicity [9]; Liver)	HepSE_liver fatty (Hepatotoxicity [11]; Liver)	further results
CCC(=O)[C@@]1(C)[C@H](C)C[C@H]2[C@@H]3CCC4=CC(=O)C=C[C@]4(C)[C@H]3[C@@H](O)C[C@@]21C [RIMEXOLONE]	0	0	0	0	0	0	0	0	0	0	0	–	–	–	–	–	–	–	–	–	HepSE_elevated liver function tests (Hepatotoxicity [3]): 0; HepSE_liver function tests abnormal (Hepatotoxicity [10]): 0; HepSE_hepatitis (Hepatotoxicity [12]): 0
NNc1nncc2ccccc12 [HYDRALAZINE]	–	–	–	–	–	–	–	–	–	–	–	0	0	0	0	0	0	0	0	0	HepSE_elevated liver function tests (Hepatotoxicity [3]; Liver): 0; HepSE_liver function tests abnormal (Hepatotoxicity [10]; Liver): 0; HepSE_hepatitis (Hepatotoxicity [12]; Liver): 1; HepSE_bilirubinemia (Hepatotoxicity [13]; Liver): 0; HepSE_Combined Scores (Hepatotoxicity [14]; Liver): 1
CN(C/C=C/C#CC(C)(C)C)Cc1cccc2ccccc12 [TERBINAFINE]	1	0	0	1	0	1	0	0	0	0	3	–	–	–	–	–	–	–	–	–	HepSE_elevated liver function tests (Hepatotoxicity [3]): 0; HepSE_liver function tests abnormal (Hepatotoxicity [10]): 0; HepSE_hepatitis (Hepatotoxicity [12]): 0
CCOC(=O)[C@H](CCc1ccccc1)N[C@@H](C)C(=O)N1Cc2cc(OC)c(OC)cc2C[C@H]1C(=O)O [MOEXIPRIL]	0	0	0	0	0	0	0	0	0	0	1	–	–	–	–	–	–	–	–	–	HepSE_elevated liver function tests (Hepatotoxicity [3]): 0; HepSE_liver function tests abnormal (Hepatotoxicity [10]): 0; HepSE_hepatitis (Hepatotoxicity [12]): 1
O=c1[nH]c(=O)n([C@H]2C[C@H](O)[C@@H](CO)O2)cc1C(F)(F)F [TRIFLURIDINE]	0	0	0	0	0	0	0	0	0	0	0	–	–	–	–	–	–	–	–	–	HepSE_elevated liver function tests (Hepatotoxicity [3]): 0; HepSE_liver function tests abnormal (Hepatotoxicity [10]): 0; HepSE_hepatitis (Hepatotoxicity [12]): 0
CCC[C@H](N[C@@H](C)C(=O)N1[C@H](C(=O)O)C[C@@H]2CCCC[C@@H]21)C(=O)OCC [PERINDOPRIL]	0	0	0	1	0	1	0	0	0	0	3	–	–	–	–	–	–	–	–	–	HepSE_elevated liver function tests (Hepatotoxicity [3]): 0; HepSE_liver function tests abnormal (Hepatotoxicity [10]): 0; HepSE_hepatitis (Hepatotoxicity [12]): 1
CN1C(C(=O)Nc2ccccn2)=C(O)c2ccccc2S1(=O)=O [PIROXICAM]	0	0	0	1	0	1	0	0	0	0	3	–	–	–	–	–	–	–	–	–	HepSE_elevated liver function tests (Hepatotoxicity [3]): 0; HepSE_liver function tests abnormal (Hepatotoxicity [10]): 0
NCCCC(O)(P(=O)(O)O)P(=O)(O)O [ALENDRONIC ACID]	–	–	–	–	–	–	–	–	–	–	–	0	0	0	0	0	0	0	0	0	HepSE_hepatitis (Hepatotoxicity [12]; Liver): 0; HepSE_bilirubinemia (Hepatotoxicity [13]; Liver): 0; HepSE_Combined Scores (Hepatotoxicity [14]; Liver): 0
Clc1ccc2c(c1)CCc1cccnc1C2=C1CCNCC1 [DESLORATADINE]	0	0	0	0	0	0	0	0	0	0	1	–	–	–	–	–	–	–	–	–	HepSE_hepatitis (Hepatotoxicity [12]): 1
O=C(O)c1cn(C2CC2)c2cc(N3CCNCC3)c(F)cc2c1=O [CIPROFLOXACIN]	–	–	–	–	–	–	–	–	–	–	–	0	0	0	1	0	1	1	1	0	HepSE_hepatitis (Hepatotoxicity [12]; Liver): 1; HepSE_bilirubinemia (Hepatotoxicity [13]; Liver): 1; HepSE_Combined Scores (Hepatotoxicity [14]; Liver): 7
Nc1ccc(S(N)(=O)=O)cc1 [SULFANILAMIDE]	–	–	–	–	–	–	–	–	–	–	–	0	0	0	0	0	0	0	0	0	HepSE_hepatitis (Hepatotoxicity [12]; Liver): 0; HepSE_bilirubinemia (Hepatotoxicity [13]; Liver): 0; HepSE_Combined Scores (Hepatotoxicity [14]; Liver): 0
CN1CC[C@]23c4c5ccc(O)c4O[C@H]2[C@@H](O)C=C[C@H]3[C@H]1C5 [MORPHINE]	–	–	–	–	–	–	–	–	–	–	–	0	0	0	0	0	0	0	0	0	HepSE_hepatitis (Hepatotoxicity [12]; Liver): 0; HepSE_bilirubinemia (Hepatotoxicity [13]; Liver): 0; HepSE_Combined Scores (Hepatotoxicity [14]; Liver): 1
CN1[C@@H]2CC[C@H]1C[C@@H](OC(=O)C(CO)c1ccccc1)C2 (stereo partly specified) [ATROPINE]	–	–	–	–	–	–	–	–	–	–	–	0	0	0	0	0	0	0	0	0	HepSE_hepatitis (Hepatotoxicity [12]; Liver): 0; HepSE_bilirubinemia (Hepatotoxicity [13]; Liver): 0; HepSE_Combined Scores (Hepatotoxicity [14]; Liver): 0
CN1[C@@H]2C[C@@H](OC(=O)[C@H](CO)c3ccccc3)C[C@H]1[C@@H]1O[C@@H]12 [SCOPOLAMINE]	–	–	–	–	–	–	–	–	–	–	–	0	0	0	0	0	0	0	0	0	HepSE_hepatitis (Hepatotoxicity [12]; Liver): 0; HepSE_bilirubinemia (Hepatotoxicity [13]; Liver): 0; HepSE_Combined Scores (Hepatotoxicity [14]; Liver): 0

From ChEMBL document CHEMBL1909294, “Translating clinical findings into knowledge in drug safety evaluation--drug induced liver injury prediction system (DILIps)” (PLoS Comput Biol, 2011)
